Experimental data taken from PMC8592027, “Structure-Guided Design of D-Galactal Derivatives with High Affinity and Selectivity for the Galectin-8 N-Terminal Domain” (ACS Medicinal Chemistry Letters, 2021).
Entries after “also recorded” stand apart in the source; their conditions may differ. Like-named read-outs stand apart in the source and are kept apart here.

Legend:
[1] = tested on: IL-8 secretion from MDA-MB-231 cells; experiment: Multiplexed cytokine assay, IL-8 secretion; assay type: cell-based, human; settings: 24 hours, vs untreated cells
Description: (§1) Figure 5 Effect of compounds 1 and 6a on the secretion of IL-6 and IL-8 expressed in pg/mL. The effects were measured after incubating the cells with the compounds at 10 and 100 μM. Compounds 1 and 6a reduce the secretion of IL-6 and IL-8 in a dose-dependent manner at 100 and 10 μM. Results shown are means ± SEM of three independent experiments. ns, not significant (p > 0.05); *p < 0.05 versus untreated controls.
(§2) Metabolic activity assay: […]
(§3) Briefly, the cells were treated with the selected compounds in 0.1% dimethyl sulfoxide (DMSO; vehicle), 0.1% DMSO (control vehicle), or medium (control) and seeded at a cell density of 5,500 cells/well (MDA-MB-231 cells) or 4 x 10^4 cells/well (K562 cells), 7000 cells/well (HepG2 cells) or 1 x 10^5 cells/well (human PBMCs) in duplicates (MDA-MB-231, K562, and […]) or triplicates for HepG2 cells (100 µL), in sterile 96-well plates. For the MDA-MB-231 and HepG2, the cells were left to adhere overnight before adding the compounds. The plates were then incubated for 24 hours (48 hours for HepG2), after which 15 µL of MTS reagent was added to each well. […]
(§4) HTX Multi-Mode; BioTek Instruments, Inc., VT, USA).
(§5) Multiplexed cytokine assay:
(§6) MDA-MB-231 cells were seeded in 96-well flat-bottom plates at a density of 2 x 10^4 cells/well in 100 µL of medium and allowed to adhere for 24 hours at 37 °C and 5% CO2. The medium was then replaced by a fresh medium containing the desired concentrations of compounds 1 and 6a, after which the cells were cells incubated again for 24 hours at 37 °C and 5% CO2. Cell-free supernatants were collected and stored at – 80 °C before the analysis. The cytokines secretion was assessed by BD Cytometric Bead Array Human inflammatory cytokine Kit (content: IL-1, IL-6, IL-8, IL-10, IL-12p). The flow cytometric analyses were performed on an Attune NxT flow cytometer (Thermo Fisher Scientific, Waltham, MA, USA). Standard curves were generated using recombinant cytokines provided in the kit, and the data were analyzed with FlowJo software (Tree Star, Inc., Ashland, OR). The results are expressed in pg/mL. Data are represented as means ± standard deviation (SD) from three representative independent experiments.
(§7) All experiments were performed at least twice, with average values expressed as means ± SD. All data were analyzed with the statistical software GraphPad Prism 8.0 (GraphPad Software, Inc., CA, USA). by one-way ANOVA followed with Dunnett’s multiple compar ison test. Differences were considered non-significant for p > 0.05, and significant (*) for p < 0.05.

[2] = tested on: human peripheral blood mononuclear cells (PBMCs); experiment: MTS metabolic activity (cytotoxicity) assay, PBMCs; assay type: cell-based; settings: concentrations up to 100 μM, 24 hours
Description: (§8) We have investigated the cytotoxicity of the compounds 1, 6a, and 6c via a (3-(4,5-dimethylthiazol-2-yl)-5-(3-carboxymethoxyphenyl)-2-(4-sulfophenyl)-2H-tetrazolium) (MTS) assay in K562 and MDA-MB-231 cancer cell lines to establish the direct antitumor activity of compounds, as well as human peripheral blood mononuclear cells (PBMCs), to evaluate their safety.
(§9) Metabolic activity assay:
as §3, with “The metabolic activities of the cell lines were determined using the CellTiter 96 Aqueous One Solution cell proliferation assay (MTS Reagents, Promega, Madison, WI, USA), according to the manufacturer instructions. Briefly,” for “Briefly,”, “well. After 30-90 minute of incubation, the absorbance was measured at 492 nm using a microplate reader (Synergy HTX Multi-Mode; BioTek Instruments, Inc., VT, USA).” for “well.”
(§10) Bead Array Human inflammatory cytokine Kit (content: IL-1, IL-6, IL-8, IL-10, IL-12p). The flow cytometric analyses were performed on an Attune NxT flow cytometer (Thermo Fisher Scientific, […]
(§11) Data are represented as means ± standard deviation (SD) from three representative independent experiments.
as §7, with “0.05. […]” for “0.05.”

K562 cancer cell line = experiment: MTS metabolic activity (cytotoxicity) assay, K562; assay type: cell-based; settings: concentrations 1 to 100 μM, 24 hours
Description: as §8, §9
as §3, with “The metabolic activities of the cell lines were determined using the CellTiter 96 Aqueous One Solution cell proliferation assay (MTS Reagents, Promega, Madison, WI, USA), according to the manufacturer instructions. Briefly,” for “Briefly,”, “well. After 30-90 minute of incubation, the absorbance was measured at 492 nm using a microplate reader (Synergy HTX Multi-Mode; BioTek Instruments, Inc., VT, USA).” for “well.”
as §10, §11
as §7, with “0.05. […]” for “0.05.”

[3] = tested on: MDA-MB-231 cancer cell line; experiment: MTS metabolic activity (cytotoxicity) assay, MDA-MB-231; assay type: cell-based, human; settings: concentrations 1 to 100 μM, 24 hours
Description: as §8, §9
as §3, with “The metabolic activities of the cell lines were determined using the CellTiter 96 Aqueous One Solution cell proliferation assay (MTS Reagents, Promega, Madison, WI, USA), according to the manufacturer instructions. Briefly,” for “Briefly,”, “well. After 30-90 minute of incubation, the absorbance was measured at 492 nm using a microplate reader (Synergy HTX Multi-Mode; BioTek Instruments, Inc., VT, USA).” for “well.”
as §10, §11
as §7, with “0.05. […]” for “0.05.”

[4] = tested on: IL-6 secretion from MDA-MB-231 cells; experiment: Multiplexed cytokine assay, IL-6 secretion; assay type: cell-based, human; settings: 24 hours, vs untreated cells
Description: as §1, §2, §3, §4, §5, §6, §7

[5] = biological target: T1, galectin-8N (galectin-8 N-terminal domain) (Homo sapiens, UniProt O00214); experiment: Competitive fluorescence polarization assay, galectin-8N; assay type: binding; settings: for Kd: mean ± SEM of n = 4–8
T1 construct: selective ligand for the galectin-8 N-terminal domain (galectin-8N); made in house
T1 sequence (O00214 19-152 limits assumed): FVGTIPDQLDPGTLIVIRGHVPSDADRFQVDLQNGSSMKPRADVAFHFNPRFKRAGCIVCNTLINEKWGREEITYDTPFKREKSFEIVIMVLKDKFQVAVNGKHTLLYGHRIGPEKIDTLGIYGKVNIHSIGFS
Description: All synthesized D-galactal derivatives had higher binding affinities for galectin-8N than D-galactal 3.
(§12) 1. Competitive fluorescence polarization experiments:
(§13) Human galectins -1, -3, -4N, -4C, -7, -8N, -9N, and -9C were expressed and purified as previously described 30,41. Fluorescence polarisation experiments were performed using the PHERAstar FS plat e reader (software version 2.10 R3), and the fluorescence anisotropy of fluorescein tagged probes was measured by excitation at 485 nm and emission at 520 nm. The specific conditions for galectins -1, -3, -4N, -4C, -7, -8N, -9N, and -9C were kept as report ed30,41,42. The synthesised compounds were dissolved in pure DMSO at 20 mM concentration and diluted in PBS to 3-6 different concentrations, and each concentration was tested in duplicate. The highest inhibitor concentrations tested were 1.5 mM. The

[6] = biological target: T1, galectin-8N (galectin-8 N-terminal domain); settings: cited from earlier work
[7] = biological target: T2, galectin-9N (N-terminal domain) (Homo sapiens, UniProt O00182); experiment: Competitive fluorescence polarization assay, galectin-9N; assay type: binding; settings: mean ± SEM of n = 4–8
T2 construct: galectins (N = N-terminal domain, C = C-terminal domain); made in house
Description: as §12, §13

[8] = biological target: T3, galectin-4C (C-terminal domain) (Homo sapiens, UniProt P56470); experiment: Competitive fluorescence polarization assay, galectin-4C; assay type: binding; settings: mean ± SEM of n = 4–8
T3 construct: galectins (N = N-terminal domain, C = C-terminal domain); made in house
T3 sequence (P56470 194-323 limits assumed): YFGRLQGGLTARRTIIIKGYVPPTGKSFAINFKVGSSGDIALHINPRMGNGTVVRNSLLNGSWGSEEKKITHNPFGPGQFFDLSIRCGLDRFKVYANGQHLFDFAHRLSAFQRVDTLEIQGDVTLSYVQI
Description: as §12, §13

galectin-3 = biological target: T4, galectin-3 (Homo sapiens, UniProt P17931); experiment: Competitive fluorescence polarization assay, galectin-3; assay type: binding; settings: mean ± SEM of n = 4–8
T4 construct: made in house
Description: as §12, §13

[9] = biological target: T5, galectin-8C (C-terminal domain) (Homo sapiens, UniProt O00214); experiment: Competitive fluorescence polarization assay, galectin-8C; assay type: binding; settings: mean ± SEM of n = 4–8
T5 construct: galectins (N = N-terminal domain, C = C-terminal domain)
T5 sequence (O00214 187-317 limits assumed): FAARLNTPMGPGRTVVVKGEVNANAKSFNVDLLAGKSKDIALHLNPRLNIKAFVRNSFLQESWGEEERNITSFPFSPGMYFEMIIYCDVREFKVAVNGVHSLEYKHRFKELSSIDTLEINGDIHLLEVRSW

[10] = biological target: T6, galectin-4N (N-terminal domain) (Homo sapiens, UniProt P56470); experiment: Competitive fluorescence polarization assay, galectin-4N; assay type: binding; settings: mean ± SEM of n = 4–8
T6 construct: galectins (N = N-terminal domain, C = C-terminal domain); made in house
T6 sequence (P56470 19-150 limits assumed): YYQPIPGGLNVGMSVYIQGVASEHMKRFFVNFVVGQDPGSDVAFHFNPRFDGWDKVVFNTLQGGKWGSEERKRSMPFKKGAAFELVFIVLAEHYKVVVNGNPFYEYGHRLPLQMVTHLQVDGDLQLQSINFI
Description: as §12, §13

galectin-1 = biological target: T7, galectin-1 (Homo sapiens, UniProt P09382); experiment: Competitive fluorescence polarization assay, galectin-1; assay type: binding; settings: mean ± SEM of n = 4–8
T7 construct: made in house
Description: as §12, §13

[11] = biological target: T8, galectin-9C (C-terminal domain) (Homo sapiens, UniProt O00182); experiment: Competitive fluorescence polarization assay, galectin-9C; assay type: binding; settings: mean ± SEM of n = 4–8
T8 construct: galectins (N = N-terminal domain, C = C-terminal domain); made in house
Description: as §12, §13

galectin-2 = biological target: T9, galectin-2 (Homo sapiens, UniProt P05162); experiment: Competitive fluorescence polarization assay, galectin-2; assay type: binding; settings: mean ± SEM of n = 4–8
T9 sequence (P05162 1-132): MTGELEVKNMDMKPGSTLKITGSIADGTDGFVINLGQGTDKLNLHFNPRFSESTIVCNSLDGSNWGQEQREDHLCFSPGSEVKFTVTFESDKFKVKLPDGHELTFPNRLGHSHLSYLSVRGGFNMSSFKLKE

galectin-7 = biological target: T10, galectin-7 (Homo sapiens, UniProt P47929); experiment: Competitive fluorescence polarization assay, galectin-7; assay type: binding; settings: mean ± SEM of n = 4–8
T10 construct: made in house
Description: as §12, §13

T2 sequence (O00182 17-148 limits assumed): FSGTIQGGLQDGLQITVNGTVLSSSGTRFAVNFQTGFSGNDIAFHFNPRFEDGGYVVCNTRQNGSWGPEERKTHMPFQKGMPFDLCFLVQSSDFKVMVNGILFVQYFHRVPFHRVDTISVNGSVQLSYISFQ
T7 sequence (P09382 whole entry): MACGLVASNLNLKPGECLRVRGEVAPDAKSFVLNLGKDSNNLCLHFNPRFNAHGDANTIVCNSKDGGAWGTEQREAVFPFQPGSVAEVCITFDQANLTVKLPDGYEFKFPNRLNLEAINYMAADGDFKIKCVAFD
T4 sequence (P17931 whole entry): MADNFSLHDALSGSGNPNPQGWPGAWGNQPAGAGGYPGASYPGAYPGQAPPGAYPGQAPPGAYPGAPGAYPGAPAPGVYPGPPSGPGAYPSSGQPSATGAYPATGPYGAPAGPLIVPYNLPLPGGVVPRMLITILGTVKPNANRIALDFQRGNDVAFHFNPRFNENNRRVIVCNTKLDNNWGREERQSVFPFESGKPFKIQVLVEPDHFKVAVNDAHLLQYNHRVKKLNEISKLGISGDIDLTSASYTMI
T8 sequence (O00182 227-355 limits assumed): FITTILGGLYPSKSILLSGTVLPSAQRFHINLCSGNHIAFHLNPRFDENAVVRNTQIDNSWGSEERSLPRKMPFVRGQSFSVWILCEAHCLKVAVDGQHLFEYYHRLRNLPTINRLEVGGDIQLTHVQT
T10 sequence (P47929 whole entry): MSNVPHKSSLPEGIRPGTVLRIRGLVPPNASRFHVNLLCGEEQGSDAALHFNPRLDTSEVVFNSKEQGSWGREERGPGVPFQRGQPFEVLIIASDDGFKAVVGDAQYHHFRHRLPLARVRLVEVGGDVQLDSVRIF

In the case of `Cn1c(CO[C@@H]2[C@@H](O)[C@@H](Sc3ccc(Cl)c(Cl)c3)O[C@H](CO)[C@@H]2O)nc2ccc(C(=O)O)cc21` [compound 1, reference compound], the “reduction in IL-8 secretion” value ([1]; 10 μM, effect not significant) is reported as roughly 20%, the “reduction of IL-8 secretion” value ([1]; 100 μM) is reported as “about 55%” and the “direct cytotoxicity (MTS), PBMCs” value [2] is reported as “lack of direct cytotoxicity”. For the same molecule, the “cell viability (MTS), K562” value (K562 cancer cell line) was “None of the compounds decreased the viability”, the “cell viability (MTS), MDA-MB-231” value [3] was “None of the compounds decreased the viability; also recorded: no effect on the viability” and the “reduction in IL-6 secretion” value ([4]; 10 μM, effect not significant) was “about 15%”. The “reduction of IL-6 secretion” value ([4]; 100 μM) was “about 65%” and the “affinity for galectin-8N relative to that of compound 6a” value [5] was “about 25 fold”.
In the case of `OC[C@H]1Oc2cc(Cc3ccc(F)cc3)cc3c2[C@@H](OC3)[C@H]1O` [compound 2], the “selectivity for galectin-8N over galectin-1” value [6] is listed as “about 2 fold” and the “selectivity for galectin-8N over galectin-3” value [6] is listed as 23 fold.
Molecule `OC[C@H]1OC=C[C@@H](O)[C@H]1O` [compound 3, D-galactal] has a Kd [7] greater than 1500 µM, a Kd [8] of 5300 µM and a Kd (galectin-3) of 3300 ± 650 µM. For the same molecule, the Kd [9] was 4100 ± 470 µM, the Kd [10] was 2400 ± 13 µM and the “higher affinity for galectin-8N compared to the methyl β-D-galactopyranoside” value [5] was 5 fold. The Kd [5] was 1300 ± 72 µM, the Kd (galectin-1) was 1600 ± 140 µM and the Kd [11] was 4800 µM.
`COC(=O)c1ccc2ccc(CO[C@@H]3C=CO[C@H](CO)[C@@H]3O)nc2c1` [compound 8] gave a Kd [7] of 1000 ± 51 µM, a Kd (galectin-2) greater than 1500 µM and a Kd [8] of 3700 ± 250 µM. It also gave a Kd (galectin-3) of 1700 ± 40 µM, a Kd [9] greater than 1500 µM and a Kd [10] of 1300 ± 12 µM. It also gave a Kd [5] of 230 ± 16 µM, a Kd (galectin-1) greater than 1500 µM and a Kd [11] greater than 1500 µM.
In the case of `O=C(O)c1ccc2ccc(CO[C@@H]3C=CO[C@H](CO)[C@@H]3O)nc2c1` [compound 9], the Kd [7] is reported as 1800 ± 160 µM, the Kd (galectin-2) is reported as 1100 ± 200 µM and the Kd [8] is reported as 2800 ± 770 µM. For the same molecule, the Kd (galectin-3) was 590 ± 78 µM, the Kd (galectin-7) was greater than 1500 µM and the Kd [9] was 4700 ± 22 µM. The Kd [10] was greater than 1500 µM, the Kd [5] was 48 ± 6 µM and the Kd (galectin-1) was 3600 µM. The Kd [11] was greater than 1500 µM.
In the case of methyl β-D-galactomalonyl phenyl ester, the Kd [6] is listed as 5.7 µM.
